From US11339128B2 (Firmenich Incorporated, priority 2014, dated 2022)
Structures can show the parent of a compound that is named as a salt.

Biological target: T1, T1R2/T1R3 taste receptor (Homo sapiens, UniProt Q7RTX0+Q8TE23)
T1 sequence (Q8TE23 20-839): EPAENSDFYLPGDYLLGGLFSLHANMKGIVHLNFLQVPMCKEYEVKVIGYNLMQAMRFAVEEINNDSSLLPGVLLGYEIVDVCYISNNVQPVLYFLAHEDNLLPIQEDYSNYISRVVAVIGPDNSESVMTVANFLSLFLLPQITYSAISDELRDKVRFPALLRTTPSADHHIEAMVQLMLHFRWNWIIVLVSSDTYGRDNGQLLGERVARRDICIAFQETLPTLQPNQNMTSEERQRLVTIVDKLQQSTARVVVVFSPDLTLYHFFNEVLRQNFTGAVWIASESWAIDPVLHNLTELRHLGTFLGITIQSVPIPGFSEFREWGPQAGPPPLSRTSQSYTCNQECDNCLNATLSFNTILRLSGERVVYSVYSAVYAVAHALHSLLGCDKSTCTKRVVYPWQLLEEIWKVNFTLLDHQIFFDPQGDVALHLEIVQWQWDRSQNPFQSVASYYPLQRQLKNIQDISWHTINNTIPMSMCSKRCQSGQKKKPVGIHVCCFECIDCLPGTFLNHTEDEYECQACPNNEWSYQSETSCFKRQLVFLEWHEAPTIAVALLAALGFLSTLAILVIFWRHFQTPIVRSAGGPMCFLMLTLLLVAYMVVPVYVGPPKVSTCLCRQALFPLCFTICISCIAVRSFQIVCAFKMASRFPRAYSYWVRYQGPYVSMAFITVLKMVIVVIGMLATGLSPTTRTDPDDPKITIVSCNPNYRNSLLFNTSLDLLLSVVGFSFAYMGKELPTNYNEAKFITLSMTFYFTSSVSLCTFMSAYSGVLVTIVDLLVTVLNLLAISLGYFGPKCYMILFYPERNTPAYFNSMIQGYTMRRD
T1 sequence (Q7RTX0 21-852): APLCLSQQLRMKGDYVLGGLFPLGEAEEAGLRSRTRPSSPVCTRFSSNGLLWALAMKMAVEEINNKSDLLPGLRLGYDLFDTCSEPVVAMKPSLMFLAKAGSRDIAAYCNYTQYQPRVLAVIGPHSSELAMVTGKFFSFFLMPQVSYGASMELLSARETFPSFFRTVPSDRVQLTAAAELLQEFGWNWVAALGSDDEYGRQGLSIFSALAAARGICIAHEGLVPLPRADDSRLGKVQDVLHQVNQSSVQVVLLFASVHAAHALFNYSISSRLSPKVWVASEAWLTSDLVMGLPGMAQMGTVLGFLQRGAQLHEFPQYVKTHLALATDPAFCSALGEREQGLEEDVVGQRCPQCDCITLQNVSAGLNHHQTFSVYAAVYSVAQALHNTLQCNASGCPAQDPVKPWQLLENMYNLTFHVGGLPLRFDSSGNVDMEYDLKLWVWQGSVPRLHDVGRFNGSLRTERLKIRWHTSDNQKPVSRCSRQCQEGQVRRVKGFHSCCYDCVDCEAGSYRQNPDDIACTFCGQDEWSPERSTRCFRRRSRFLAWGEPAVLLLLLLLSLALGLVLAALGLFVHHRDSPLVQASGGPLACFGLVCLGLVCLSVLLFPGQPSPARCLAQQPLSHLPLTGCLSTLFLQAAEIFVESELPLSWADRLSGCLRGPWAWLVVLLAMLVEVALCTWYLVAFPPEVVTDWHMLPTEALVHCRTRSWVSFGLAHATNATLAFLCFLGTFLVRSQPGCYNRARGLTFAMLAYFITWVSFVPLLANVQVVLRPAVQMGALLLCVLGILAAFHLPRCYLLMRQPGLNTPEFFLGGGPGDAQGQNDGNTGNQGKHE
Experiment: Receptor-based assay: sweetener EC50 enhancement ratio with and without test compound
Assay type: cell-based
Conditions: for Sucrose Enhancement EC50 Ratio: sweetener sucrose; for Fructose Enhancement EC50 Ratio: sweetener fructose; for Sucralose Enhancement EC50 Ratio: sweetener sucralose
In short: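 Sweetener (sucrose, sucralose, fructose) EC50 measured alone and with 1, 3, 10 or 50 μM test compound. Enhancement ratio = EC50 without/with compound; A = >1 to <10, B = 10–20, C = >20.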

SMILES	Sucrose Enhancement EC50 Ratio (1 μM test compound)	Sucrose Enhancement EC50 Ratio (3 μM test compound)	Fructose Enhancement EC50 Ratio (10 μM test compound)	Sucralose Enhancement EC50 Ratio (10 μM test compound)	Sucrose Enhancement EC50 Ratio (10 μM test compound)	Fructose Enhancement EC50 Ratio (50 μM test compound)	Sucralose Enhancement EC50 Ratio (3 μM test compound)
CCNCC(=O)N[C@H]1CC[C@H](Oc2cccc3nc(C)c(C(=O)O)c(N)c23)CC1.Cl [Compound 400, 4-Amino-5-((trans-4-(2-(ethylamino)acetamido)cyclohexyl)oxy)-2-methyl quinolone-3-carboxylic acid (HCl)]	A (an enhancement ratio of greater than 1 and less than 10)	A (an enhancement ratio of greater than 1 and less than 10)	A (an enhancement ratio of greater than 1 and less than 10)	A (an enhancement ratio of greater than 1 and less than 10)	A (an enhancement ratio of greater than 1 and less than 10)	A (an enhancement ratio of greater than 1 and less than 10)	
CN[C@@H](C)C(=O)N[C@H]1CC[C@H](Oc2cccc3nc(C)c(C(=O)O)c(N)c23)CC1.Cl [Compound 500]	A (an enhancement ratio of greater than 1 and less than 10)	A (an enhancement ratio of greater than 1 and less than 10)		A (an enhancement ratio of greater than 1 and less than 10)	A (an enhancement ratio of greater than 1 and less than 10)	A (an enhancement ratio of greater than 1 and less than 10)	
Cc1nc2cccc(OC3CCC(C)(C)CC3)c2c(N)c1C(=O)O [Compound 103]	C (an enhancement ratio greater than 20)	C (an enhancement ratio greater than 20)					
Cc1nc2cccc(O[C@H]3CC[C@H](NC(=O)CN4CCCC4)CC3)c2c(N)c1C(=O)O [Compound 323]	A (an enhancement ratio of greater than 1 and less than 10)	A (an enhancement ratio of greater than 1 and less than 10)					
Cc1nc2cccc(O[C@H]3CC[C@H](NC(=O)COCC(C)(C)C)CC3)c2c(N)c1C(=O)O [Compound 301, 4-Amino-2-methyl-5-((trans-4-(2-(neopentyloxy)acetamido)cyclohexyl)oxy) quinoline-3-carboxylic acid]	B (an enhancement ratio from 10 to 20)	B (an enhancement ratio from 10 to 20)					B (an enhancement ratio from 10 to 20)
COc1cnc(N[C@H]2CC[C@H](Oc3cccc4nc(C)c(C(=O)O)c(N)c34)CC2)nc1 [Compound 703]	A (an enhancement ratio of greater than 1 and less than 10)	A (an enhancement ratio of greater than 1 and less than 10)	A (an enhancement ratio of greater than 1 and less than 10)	B (an enhancement ratio from 10 to 20)	B (an enhancement ratio from 10 to 20)		B (an enhancement ratio from 10 to 20)
CCOC(C)C(=O)N[C@H]1CC[C@H](Oc2cccc3nc(C)c(C(=O)O)c(N)c23)CC1 (some centres unmarked) [Compound 315]	B (an enhancement ratio from 10 to 20)	B (an enhancement ratio from 10 to 20)			C (an enhancement ratio greater than 20)		
Cc1nc2cccc(O[C@H]3CC[C@H](NC(=O)CN)CC3)c2c(N)c1C(=O)O [Compound 401]	A (an enhancement ratio of greater than 1 and less than 10)	A (an enhancement ratio of greater than 1 and less than 10)	A (an enhancement ratio of greater than 1 and less than 10)	A (an enhancement ratio of greater than 1 and less than 10)	A (an enhancement ratio of greater than 1 and less than 10)		
COCCOCC(=O)N[C@H]1CC[C@H](Oc2cccc3nc(C)c(C(=O)O)c(N)c23)CC1 [Compound 336]	A (an enhancement ratio of greater than 1 and less than 10)	C (an enhancement ratio greater than 20)					B (an enhancement ratio from 10 to 20)
Cc1nc2cccc(O[C@H]3CC[C@H](N)CC3)c2c(N)c1C(=O)O.Cl [Compound 302, 4-Amino-5-((trans-4-aminocyclohexyl)oxy)-2-methylquinoline-3-carboxylic acid (HCl salt)]	A (an enhancement ratio of greater than 1 and less than 10)	A (an enhancement ratio of greater than 1 and less than 10)					
CCc1nc2cccc(OC3CCCCC3)c2c(N)c1C(=O)O [Compound 200]	A (an enhancement ratio of greater than 1 and less than 10)	A (an enhancement ratio of greater than 1 and less than 10)			A (an enhancement ratio of greater than 1 and less than 10)		
Cc1nc2cccc(O[C@H]3CC[C@H](NC(=O)[C@@H]4CCCN4)CC3)c2c(N)c1C(=O)O [Compound 504]	A (an enhancement ratio of greater than 1 and less than 10)	A (an enhancement ratio of greater than 1 and less than 10)					
CCC(CC)COCC(=O)N[C@H]1CC[C@H](Oc2cccc3nc(C)c(C(=O)O)c(N)c23)CC1 [Compound 331]	A (an enhancement ratio of greater than 1 and less than 10)	A (an enhancement ratio of greater than 1 and less than 10)			C (an enhancement ratio greater than 20)		
CCOCC(=O)N[C@H]1CC[C@H](Oc2cccc3nc(CC)c(C(=O)O)c(N)c23)CC1 [Compound 322]	A (an enhancement ratio of greater than 1 and less than 10)	A (an enhancement ratio of greater than 1 and less than 10)					
Cc1nc2cccc(O[C@H]3CC[C@@H](O)CC3)c2c(N)c1C(=O)O [Compound 108]	A (an enhancement ratio of greater than 1 and less than 10)	A (an enhancement ratio of greater than 1 and less than 10)			A (an enhancement ratio of greater than 1 and less than 10)		
Cc1cc(C)nc(N[C@H]2CC[C@H](Oc3cccc4nc(C)c(C(=O)O)c(N)c34)CC2)n1 [Compound 702, 4-Amino-5-((trans-4-((4,6-dimethylpyrimidin-2-yl)amino)cyclohexyl)oxy)-2-methylquinoline-3-carboxylic (HCl)]	A (an enhancement ratio of greater than 1 and less than 10)	A (an enhancement ratio of greater than 1 and less than 10)		B (an enhancement ratio from 10 to 20)	A (an enhancement ratio of greater than 1 and less than 10)		A (an enhancement ratio of greater than 1 and less than 10)
Cc1nc2cccc(O[C@H]3CC[C@H](NC(=O)COCC4CCCC4)CC3)c2c(N)c1C(=O)O [Compound 338]	A (an enhancement ratio of greater than 1 and less than 10)						
Cc1nc2cccc(O[C@H]3CC[C@H](NC(=O)Cn4ccnc4)CC3)c2c(N)c1C(=O)O [Compound 325]	A (an enhancement ratio of greater than 1 and less than 10)	B (an enhancement ratio from 10 to 20)					A (an enhancement ratio of greater than 1 and less than 10)
